Where no end group is shown, it is not given here. [ ]: non-standard residue; d: D form. pGlu = O=C1CC[C@@H](C(=O)O)N1
Assays:
IMGE-5 cells [1] = assay: IMGE-5 cell proliferation, [3H]-thymidine incorporation; type: cell-based, mice; conditions: for Inhibition of Ggly-stimulated IMGE-5 cell proliferation by iron chelator: [3H]-thymidine incorporation (FIG. 10); for S (%), maximum % stimulation: IMGE cells, thymidine uptake, best fit at saturating concentration; for Effect of DFO on proliferation induced by the peptide: peptide 100 nM, plus or minus 1 μM DFO, [3H]-thymidine incorporation
Experimental: In some cases cell proliferation was also measured by [^3H]-thymidine incorporation as described previously (Oiry et al., 2000). Briefly, IMGE-5 cells (10^5/well) were seeded in 24-well plates in medium containing 10% FBS and 1 unit/ml γ-interferon. On the next day cells were serum starved and shifted to 39° C. for 24 hr. Cells were then incubated with or without various compounds at 39° C. for 17 h in medium supplemented with 0.2% bovine serum albumin only. Cells were incubated with 0.5 μCi of [^3H] thymidine in the same medium at 39° C. for 4 h, washed twice with PBS (2.7 mM KCl, 142 mM NaCl, 1.5 mM KH2PO4, 10 mM Na2HPO4, pH 6.95) containing 0.2% bovine serum albumin and incubated at 4° C. for 30 min with 5% trichloroacetic acid. Finally cells were washed with 95% ethanol to remove unincorporated [^3H] thymidine, and lysed with 1 M NaOH. Lysates were transferred to counting vials and neutralized with 1M HCl. The radioactivity of each lysate was counted in a β-counter after the addition of 10 ml of Pico-fluor 40 solution (Packard, Meriden, Conn.).
In some experiments IMGE-5 cells were seeded in a 96-well plate at a density of 3-5×10^3 cells/well in.DMEM containing 10% FBS, and cultured at 33° C.. On the following day, the cells were serum-starved at 33° C. for 24 h. […] The cells were cultured at 39° C. for 24 h, and then harvested using a NUNC cell harvester. The amount of ^3H-thymidine incorporated through DNA synthesis was detected with a β-counter (Packard, Meriden, Conn.). […]

IMGE-5 cells [2] = assay: IMGE-5 cell proliferation, MTT assay; type: cell-based, mice; conditions: MTT assay; peptides shown at 1 nM (FIGS. 7A, 8A)
Experimental: (§1) The IMGE-5 cell line was established from the gastric mucosa of mice transgenic for a temperature-sensitive mutant of the SV40 large T antigen (Hollande et al, 2001). IMGE-5 cells were generally grown at 33° C. in DMEM containing 1 unit/ml γ-interferon, 10% FBS, 100 U/ml penicillin, and 100 μg/ml streptomycin (permissive conditions). For all experiments, cells were transferred to 39° C. in the same medium without […] (non-permissive conditions), where they display differentiated characteristics such as expression of functional adherens and tight junctions. All experiments have been performed on cells between passages 20 and 35.
A colorimetric assay was used to measure cell proliferation. Briefly, IMGE-5 cells were seeded in a 96-well plate at a density of 10^4 cells/well in DMEM containing 10% FBS and antibiotics. The following day, cells were synchronized in Go by incubation for 24 h in the same medium lacking FBS. The medium was replaced the next day with fresh medium containing 1% FBS and antibiotics and the peptides under investigation, and incubation was continued for 72 h. 15 μl of 5 mg/ml 3-(4,5-dimethylthiazol-2-yl)-2-5-diphenyltetrazolium bromide (MTT, Sigma, St Louis Mo.) was added per well, and the plate was incubated at 37° C. for 4 h before the medium was discarded. 200 μl 40 mM HCl in isopropanol was added to lyse the cells, and the absorbance at 570 nm was read on a BioRad Model 550 Microplate reader (BioRad, Hercules, Calif.).

IMGE-5 cells [3] = assay: Wound healing / cell migration assay; type: cell-based, mice; conditions: wound healing assay; fragments and mutants shown at 1 nM (FIGS. 7B, 8B)
Experimental: as §1
In order to assess the effects of different stimuli on cell migration, wound healing experiments were performed as detailed elsewhere (Hollande et al, 1997). In brief, IMGE-5 cells were grown in 12-well plates in DMEM at 33° C. until they reached 80% confluence, then shifted to 39° C. and starved of serum for 24 h. The confluent monolayer was wounded using a 20 μl-pipette tip, and cells were then washed 3 times with phosphate-buffered saline (PBS: 2.7 mM KCl, 1.5 MM KH2PO4, 142 mM NaCl, and 10 mM Na2HPO4, pH 6.95) and treated with or without different compounds in DMEM with antibiotics. Morphology and migration of cells were observed and photographed immediately, and after treatment for 17 and 24 h. Wound width was measured at six different positions on the 24 h photographs, and averages calculated.

[4] = Quenching of peptide tryptophan fluorescence by ferric ions (stoichiometry, apparent Kd); type: binding; conditions: 10 mM sodium acetate pH 4.0, 100 mM NaCl, 0.005% Tween 20; mean ± S.E.; read-out: Kd (μM), apparent dissociation constant for ferric ions
Experimental: The tryptophan fluorescence of peptide solutions was measured in 3 mL quartz cuvettes thermostated at […], with a Spex Fluorolog-2 spectrofluorimeter (Spex Industries, Edison, N.J.), with the excitation and emission wavelengths set at 290 and 345 nm, respectively. The quenching of tryptophan fluorescence induced by the binding of metal ions was used to calculate the fraction of binding sites occupied, fa: fa=(yf−y)/(yf−yb) where y is the fluorescence signal at a given concentration of metal ions and yb and yf are the signals when the binding sites are fully occupied and unoccupied, respectively (Winzor et al, 1995). The stoichiometry, p, and apparent dissociation constant, Kd, were then obtained, using the program Sigmastat (Jandel Scientific, San Rafael, Calif.), from the intercept and slope of a linear regression of the data transformed as described by Winzor and Sawyer (1995) in terms of the equation Cs/fa=pCa+Kd/(1−fa) where Cs is the total concentration of metal ions, and Ca is the total concentration of glycine-extended gastrin17. For the bismuth binding studies, the data was fitted by non-linear regression with the program Sigmaplot (Jandel Scientific, San Rafael, Calif.) to the equations for models with one binding site or two binding sites with identical affinities: fa=x/(Kd1+x) or to the model with two binding sites with different affinities: fa=(Kd1·x+Kd2·x+2x^2)/2(Kd1·Kd2+Kd1·x+Kd2·x+x^2) where x is the concentration of free metal ions, Kd1 is the first site dissociation constant and Kd2 is the second site dissociation constant. For the one-site model the value of x at any given total concentration of metal ions was obtained by exact solution of the appropriate quadratic (Malby et al, 2001). For the two-site models the value of x was obtained by an iterative Newton-Raphson procedure (Linse et al, 1991). Absorption Spectroscopy
The tryptophan fluorescence of progastrin6-80, glycine-extended gastrin17 and related peptides was measured in the presence of increasing concentrations of ferric ions in 10 mM sodium acetate, pH 4.0, 100 mM NaCl, 0.005% Tween 20. […] Values from the indicated number of independent experiments were combined to obtain the mean values (±S.E.) presented above. No binding of ferric ions to Ggly1-4 or Ggly12-18 was observed.
The tryptophan fluorescence of amidated gastrin17 and related peptides was measured in the presence of increasing concentrations of ferric ions at pH 4.0 (8). Values of the stoichiometry and the apparent dissociation constant (Kd) were obtained from linear transformations of the data presented in FIG. 20A by least squares fitting. Values from the indicated number of independent experiments were combined to obtain the mean values (±S.E.) presented above.

Molecule	S (%), maximum % stimulation (IMGE-5 cells [1])	Effect of DFO on proliferation induced by the peptide (IMGE-5 cells [1])	Stimulation of IMGE-5 cell proliferation (IMGE-5 cells [2])	Stimulation of IMGE-5 cell migration (IMGE-5 cells [3])	further results
Oc1c(I)cc(Cl)c2cccnc12 [clioquinol]					Inhibition of Ggly-stimulated IMGE-5 cell proliferation by iron chelator (IMGE-5 cells [1]): inhibited Ggly-stimulated IMGE-5 cell proliferation in a dose-dependent manner
COc1cccc2c1C(=O)c1c(O)c3c(c(O)c1C2=O)C[C@@](O)(C(=O)CO)C[C@@H]3O[C@H]1C[C@H](N)[C@H](O)[C@H](C)O1 [doxorubicin]					Inhibition of Ggly-stimulated IMGE-5 cell proliferation by iron chelator (IMGE-5 cells [1]): inhibited Ggly-stimulated IMGE-5 cell proliferation in a dose-dependent manner
EEEEE [Peptide E5]	22.5%	no significant reduction			
EEEEEA [Peptide E5A]	29.1%	no significant reduction			
EEEEEAY [Peptide E5AY]	36.1%	significantly blocked by DFO			
Ggly1-4: fragment of Ggly, residues 1-4, SEQ ID NO:6 ([pGlu]GPW; listed as Homo sapiens)			neither of these fragments stimulated proliferation	Nor did they stimulate migration	
Ggly12-18: C-terminal heptapeptide of Ggly, SEQ ID NO:8 (YGWMDFG; listed as Homo sapiens)			neither of these fragments stimulated proliferation	Nor did they stimulate migration	
GglyE6A: Ggly mutant, Glu6 replaced by Ala, SEQ ID NO:10 ([pGlu]GPWLAEEEEAYGWMDFG; ends and bridges not checked)			to the same extent as Ggly	to the same extent as Ggly	Kd [4]: 0.23 ± 0.02 µM
LEEEEE [LE5]	29.9%	no significant reduction			
LEEEEEA [LE5A]	34.7%	lower in the presence of DFO, although the reduction did not reach significance			
